Measurements reported in patent US10246461B2, “Dosage form compositions comprising an inhibitor of bruton's tyrosine kinase” (Genentech, Inc., priority 2016, dated 2019).
Values after ≈ are worked out from the molar mass of the structure shown. Where two headings read alike, the source gives them in different places. Each block holds one compound with its values, some of them ahead of it.

Experiments:
[1] = Solubility of compound (I) free base in buffers of varying pH, FeSSIF and FaSSIF; type: physicochemical
[2] = Dissolution of compound (I) mesylate salt vs free base in pH 4.5 aqueous media; type: physicochemical; settings: 100 mg in 2 mL pH 4.5 aqueous media, 37° C.
[3] = Two-stage non-sink dissolution assay (kinetic solubility) of ASD formulations and unformulated API: simulated gastric media then FaSSIF; type: physicochemical; settings: pH 1 gastric media, dosed concentration of about 2000 ug/mL
Description: The assay was performed in a modified USP II apparatus (paddles). The experiment measured the total drug dissolved in the presence of excess solid API (non-sink conditions), which included a combination of ‘free’ and colloidal or polymer-bound drug in solution. In some evaluations—to simulate the relatively high pH gastric environment in patients taking proton pump inhibitors—different simulated gastric media were used to begin the two-stage experiment: either pH 1 (HCl buffer) or pH 4 or 5 (acetate buffers) at a nominal compound (I) concentration of 2.0 mg/mL. In some other experiments, acetate buffer was replaced with a dilute HCl solution at similar pH, to better mimic the expected in vivo environment. After 30 minutes, the test material was transferred to fasted-state simulated intestinal fluid (FaSSIF) media consisting of physiologically relevant bile salts (SIF Powder, Biorelevant Inc.) in 100 mM phosphate buffer, and the compound (I) concentration was diluted to 1.0 mg/mL. pH of the phosphate buffer was adjusted as needed to obtain a simulated intestinal pH of 6.8±0.1 in the second stage of the dissolution experiment. The test material was sampled periodically throughout the test and samples were centrifuged at 13,000 r/min. The supernatant was diluted 1:1 with sample diluent and the compound (I) concentration was measured by HPLC. […]

[4] = Human PK, second comparative study: single dose food and PPI assessment of 100 mg powder-in-capsule (Panels J-M); type: in vivo; settings: 100 mg PIC single dose
Excerpt: The protocol is detailed Table 24 below wherein each panel contained 10 human subjects.

[5] = Panel K: high fat breakfast, no PPI
[6] = Panel L: fasted + rabeprazole 20 mg BID
[7] = Panel M: high fat breakfast + rabeprazole 20 mg BID

solubility ([1]; aqueous buffer, pH 2.6, aqueous buffer, read-out: aqueous solubility): ~6500 µg/mL (≈ 9780 µM) | solubility ([1]; aqueous buffer, pH 5.0, read-out: solubility): ~1 µg/mL (≈ 1.5 µM)
Compound: CC1CN(C2COC2)CCN1c1ccc(Nc2cc(-c3ccnc(N4CCn5c(cc6c5CC(C)(C)C6)C4=O)c3CO)cn(C)c2=O)nc1 [Compound (A), (R)-2-(3′-(hydroxymethyl)-1-methyl-5-((5-(2-methyl-4-(oxetan-3-yl)piperazin-1-yl)pyridin-2-yl)amino)-6-oxo-1,6-dihydro-[3,4′-bipyridin]-2′-yl)-7,7-dimethyl-2,3,4,6,7,8-hexahydro-1H-cyclopenta[4,5]pyrrolo[1,2-a]pyrazin-1-one]

% dissolved ([2]; 15 min): 0% | % dissolved ([2]; 30 min): 0.5% | % dissolved ([2]; 45 min): 2.3% | % dissolved ([2]; 60 min): 4.1% | solubility ([1]; FaSSIF (pH 6.8), read-out: Solubility): 13 µg/mL (≈ 19.6 µM) | solubility ([1]; FeSSIF (pH 5), read-out: Solubility): 18 µg/mL (≈ 27.1 µM) | solubility ([1]; aqueous buffer, pH 2.54, aqueous buffer, read-out: Solubility): 35900 µg/mL (≈ 54000 µM) | solubility ([1]; aqueous buffer, pH 2.6, aqueous buffer, pH 2.60, read-out: Solubility): 6480 µg/mL (≈ 9750 µM) | solubility ([1]; aqueous buffer, pH 3.8, aqueous buffer, pH 3.80, read-out: Solubility): 36 µg/mL (≈ 54.2 µM) | solubility ([1]; aqueous buffer, pH 5.04, aqueous buffer, read-out: Solubility): 1 µg/mL (≈ 1.5 µM) | solubility ([1]; aqueous buffer, pH 6.94, aqueous buffer, read-out: Solubility): 1 µg/mL (≈ 1.5 µM) | solubility ([1]; aqueous buffer, pH 7.76, aqueous buffer, read-out: Solubility): 1 µg/mL (≈ 1.5 µM) | kinetic dissolution in gastric media [3]: fully dissolved | plasma AUCinf, Mean ([4]; Panel J: fasted, no PPI): 1.073 µM·h | plasma HL-Lambda-z, Mean ([4]; Panel J: fasted, no PPI): 16 h | plasma HL-Lambda-z, Median ([4]; Panel J: fasted, no PPI): 13 h | plasma AUCinf, Mean [4, 5]: 1.701 µM·h | plasma HL-Lambda-z, Mean [4, 5]: 9.82 h | plasma HL-Lambda-z, Median [4, 5]: 9.7 h | plasma HL-Lambda-z, Mean [4, 6]: 12.8 h | plasma HL-Lambda-z, Median [4, 6]: 11 h | plasma HL-Lambda-z, Mean [4, 7]: 13.4 h | plasma HL-Lambda-z, Median [4, 7]: 12 h | Cmax ([4]; Panel M: high fat breakfast + rabeprazole 20 mg BID, read-out: plasma Cmax, Mean): 41 nM | AUC(0-t) ([4]; plasma, oral, Panel L: fasted + rabeprazole 20 mg BID, read-out: plasma AUC0-24, Mean): 0.157 µM·h | AUC(0-t) ([4]; plasma, oral, Panel L: fasted + rabeprazole 20 mg BID, read-out: plasma AUC0-24, Median): 0.16 µM·h | AUC(0-inf) ([4]; plasma, oral, Panel L: fasted + rabeprazole 20 mg BID, read-out: plasma AUCinf, Mean): 0.274 µM·h | AUC(0-inf) ([4]; plasma, oral, Panel L: fasted + rabeprazole 20 mg BID, read-out: plasma AUCinf, Median): 0.27 µM·h | AUC(0-t) ([4]; plasma, oral, Panel L: fasted + rabeprazole 20 mg BID, read-out: plasma AUClast, Mean): 0.261 µM·h | AUC(0-t) ([4]; plasma, oral, Panel L: fasted + rabeprazole 20 mg BID, read-out: plasma AUClast, Median): 0.27 µM·h | Cmax ([4]; plasma, oral, Panel L: fasted + rabeprazole 20 mg BID, read-out: plasma Cmax, Mean): 11.6 nM | Cmax ([4]; plasma, oral, Panel L: fasted + rabeprazole 20 mg BID, read-out: plasma Cmax, Median): 12 nM | Tmax ([4]; plasma, oral, Panel L: fasted + rabeprazole 20 mg BID, read-out: plasma Tmax, Mean): 5.7 h | Tmax ([4]; plasma, oral, Panel L: fasted + rabeprazole 20 mg BID, read-out: plasma Tmax, Median): 4 h | AUC(0-t) ([4]; plasma, oral, Panel M: high fat breakfast + rabeprazole 20 mg BID, read-out: plasma AUC0-24, Mean): 0.471 µM·h | AUC(0-t) ([4]; plasma, oral, Panel M: high fat breakfast + rabeprazole 20 mg BID, read-out: plasma AUC0-24, Median): 0.52 µM·h | AUC(0-inf) ([4]; plasma, oral, Panel M: high fat breakfast + rabeprazole 20 mg BID, read-out: plasma AUCinf, Mean): 0.657 µM·h | AUC(0-inf) ([4]; plasma, oral, Panel M: high fat breakfast + rabeprazole 20 mg BID, read-out: plasma AUCinf, Median): 0.67 µM·h | AUC(0-t) ([4]; plasma, oral, Panel M: high fat breakfast + rabeprazole 20 mg BID, read-out: plasma AUClast, Mean): 0.642 µM·h | AUC(0-t) ([4]; plasma, oral, Panel M: high fat breakfast + rabeprazole 20 mg BID, read-out: plasma AUClast, Median): 0.66 µM·h | Cmax ([4]; plasma, oral, Panel M: high fat breakfast + rabeprazole 20 mg BID, read-out: plasma Cmax, Mean): 40.6 nM | Cmax ([4]; plasma, oral, Panel M: high fat breakfast + rabeprazole 20 mg BID, read-out: plasma Cmax, Median): 40 nM | Tmax ([4]; plasma, oral, Panel M: high fat breakfast + rabeprazole 20 mg BID, read-out: plasma Tmax, Mean): 6.9 h | Tmax ([4]; plasma, oral, Panel M: high fat breakfast + rabeprazole 20 mg BID, read-out: plasma Tmax, Median): 7 h | AUC(0-t) ([4]; plasma, oral, 100 mg, Panel J: fasted, no PPI, read-out: plasma AUC0-24, Mean): 0.967 µM·h | AUC(0-t) ([4]; plasma, oral, 100 mg, Panel J: fasted, no PPI, read-out: plasma AUC0-24, Median): 0.98 µM·h | AUC(0-inf) ([4]; plasma, oral, 100 mg, Panel J: fasted, no PPI, read-out: plasma AUCinf, Mean): 1.07 µM·h | AUC(0-inf) ([4]; plasma, oral, 100 mg, Panel J: fasted, no PPI, read-out: plasma AUCinf, Median): 1.1 µM·h | AUC(0-t) ([4]; plasma, oral, 100 mg, Panel J: fasted, no PPI, read-out: plasma AUClast, Mean): 1.06 µM·h | AUC(0-t) ([4]; plasma, oral, 100 mg, Panel J: fasted, no PPI, read-out: plasma AUClast, Median): 1 µM·h | Cmax ([4]; plasma, oral, 100 mg, Panel J: fasted, no PPI, read-out: plasma Cmax, Mean): 218 nM | Cmax ([4]; plasma, oral, 100 mg, Panel J: fasted, no PPI, read-out: plasma Cmax, Median): 200 nM | Tmax ([4]; plasma, oral, 100 mg, Panel J: fasted, no PPI, read-out: plasma Tmax, Mean): 1.5 h | Tmax ([4]; plasma, oral, 100 mg, Panel J: fasted, no PPI, read-out: plasma Tmax, Median): 1.5 h | AUC(0-t) ([4]; plasma, oral, 100 mg, Panel K: high fat breakfast, no PPI, read-out: plasma AUC0-24, Mean): 1.56 µM·h | AUC(0-t) ([4]; plasma, oral, 100 mg, Panel K: high fat breakfast, no PPI, read-out: plasma AUC0-24, Median): 1.5 µM·h | AUC(0-inf) ([4]; plasma, oral, 100 mg, Panel K: high fat breakfast, no PPI, read-out: plasma AUCinf, Mean): 1.7 µM·h | AUC(0-inf) ([4]; plasma, oral, 100 mg, Panel K: high fat breakfast, no PPI, read-out: plasma AUCinf, Median): 1.6 µM·h | AUC(0-t) ([4]; plasma, oral, 100 mg, Panel K: high fat breakfast, no PPI, read-out: plasma AUClast, Mean): 1.69 µM·h | AUC(0-t) ([4]; plasma, oral, 100 mg, Panel K: high fat breakfast, no PPI, read-out: plasma AUClast, Median): 1.6 µM·h | Cmax ([4]; plasma, oral, 100 mg, Panel K: high fat breakfast, no PPI, read-out: plasma Cmax, Mean): 235 nM | Cmax ([4]; plasma, oral, 100 mg, Panel K: high fat breakfast, no PPI, read-out: plasma Cmax, Median): 250 nM | Tmax ([4]; plasma, oral, 100 mg, Panel K: high fat breakfast, no PPI, read-out: plasma Tmax, Mean): 4 h | Tmax ([4]; plasma, oral, 100 mg, Panel K: high fat breakfast, no PPI, read-out: plasma Tmax, Median): 4 h
Compound: C[C@H]1CN(C2COC2)CCN1c1ccc(Nc2cc(-c3ccnc(N4CCn5c(cc6c5CC(C)(C)C6)C4=O)c3CO)cn(C)c2=O)nc1 [Compound (I) free base, (S)-2-(3′-(hydroxymethyl)-1-methyl-5-((5-(2-methyl-4-(oxetan-3-yl)piperazin-1-yl)pyridin-2-yl)amino)-6-oxo-1,6-dihydro-[3,4′-bipyridin]-2′-yl)-7,7-dimethyl-2,3,4,6,7,8-hexahydro-1H-cyclopenta[4,5]pyrrolo[1,2-a]pyrazin-1-one]
